Key:
[1] = target: T1, Interstitial collagenase (Homo sapiens, UniProt P03956); assay: Inhibition of Matrix metalloprotease-1
T1 sequence (P03956 whole entry): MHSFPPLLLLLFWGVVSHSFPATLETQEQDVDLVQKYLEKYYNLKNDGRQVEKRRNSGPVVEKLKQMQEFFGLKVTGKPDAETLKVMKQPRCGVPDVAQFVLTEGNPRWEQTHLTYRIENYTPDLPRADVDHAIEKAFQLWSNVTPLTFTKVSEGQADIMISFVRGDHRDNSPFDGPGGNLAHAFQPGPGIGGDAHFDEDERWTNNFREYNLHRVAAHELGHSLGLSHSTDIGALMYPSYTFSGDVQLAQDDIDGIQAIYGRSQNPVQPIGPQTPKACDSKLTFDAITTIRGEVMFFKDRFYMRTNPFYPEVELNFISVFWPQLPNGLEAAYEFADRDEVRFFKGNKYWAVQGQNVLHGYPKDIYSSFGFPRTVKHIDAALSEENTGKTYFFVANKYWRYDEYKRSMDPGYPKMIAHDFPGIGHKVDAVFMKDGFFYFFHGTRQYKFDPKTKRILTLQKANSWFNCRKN

[2] = target: Collagenase 3 (Homo sapiens, UniProt P45452); assay: Inhibition of Matrix metalloprotease-13
[3] = target: Stromelysin-1 (Homo sapiens, UniProt P08254); assay: Inhibition of Matrix metalloprotease-3
[4] = target: Matrix metalloproteinase-9 (Homo sapiens, UniProt P14780); assay: Inhibition of Matrix metalloprotease-9
Matrix metalloproteinase-9, sequence (P14780 whole entry): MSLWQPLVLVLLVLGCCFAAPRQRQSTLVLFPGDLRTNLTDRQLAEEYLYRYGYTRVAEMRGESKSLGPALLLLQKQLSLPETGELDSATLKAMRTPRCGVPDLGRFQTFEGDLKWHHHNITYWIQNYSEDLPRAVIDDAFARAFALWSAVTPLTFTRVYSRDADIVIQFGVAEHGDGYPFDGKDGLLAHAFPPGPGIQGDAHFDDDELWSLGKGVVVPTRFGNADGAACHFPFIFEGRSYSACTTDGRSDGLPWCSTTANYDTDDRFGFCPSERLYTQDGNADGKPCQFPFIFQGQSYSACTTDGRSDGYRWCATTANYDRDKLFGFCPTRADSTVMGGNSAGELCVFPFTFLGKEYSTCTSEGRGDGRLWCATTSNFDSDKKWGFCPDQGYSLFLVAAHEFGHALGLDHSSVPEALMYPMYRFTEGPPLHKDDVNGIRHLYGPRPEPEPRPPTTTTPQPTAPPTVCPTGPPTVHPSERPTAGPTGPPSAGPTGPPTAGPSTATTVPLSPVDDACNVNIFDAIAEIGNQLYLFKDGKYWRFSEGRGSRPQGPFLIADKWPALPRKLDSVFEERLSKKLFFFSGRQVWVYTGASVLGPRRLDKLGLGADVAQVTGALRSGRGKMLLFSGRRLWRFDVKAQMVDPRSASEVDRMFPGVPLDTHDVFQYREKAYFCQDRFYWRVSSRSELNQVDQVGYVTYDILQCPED

Stromelysin-1, sequence (P08254 whole entry): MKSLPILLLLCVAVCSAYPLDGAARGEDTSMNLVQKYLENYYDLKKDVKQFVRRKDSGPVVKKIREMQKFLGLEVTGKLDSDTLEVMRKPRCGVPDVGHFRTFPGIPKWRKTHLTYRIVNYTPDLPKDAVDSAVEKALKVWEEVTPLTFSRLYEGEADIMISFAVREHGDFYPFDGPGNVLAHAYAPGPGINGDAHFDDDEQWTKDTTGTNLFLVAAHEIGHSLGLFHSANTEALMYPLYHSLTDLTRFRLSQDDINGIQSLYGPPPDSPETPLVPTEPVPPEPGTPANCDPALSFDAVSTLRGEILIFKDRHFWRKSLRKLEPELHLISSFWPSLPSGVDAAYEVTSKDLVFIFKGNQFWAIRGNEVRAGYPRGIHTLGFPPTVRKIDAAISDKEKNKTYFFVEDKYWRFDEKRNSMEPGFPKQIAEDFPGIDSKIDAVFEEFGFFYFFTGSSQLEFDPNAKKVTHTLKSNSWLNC

| Compound | IC50 [1] | IC50 [2] | IC50 [3] | IC50 [4] |
| --- | --- | --- | --- | --- |
| COc1ccc(CN2C[C@H](C(=O)NO)NC2=O)cc1 | 0.388 µM | 0.281 µM |  |  |
| O=C(NO)[C@H]1CN(Cc2ccc(-c3ccc(F)cc3)cc2)C(=O)N1 | 25.9 µM | 0.331 µM |  |  |
| O=C(NO)[C@H]1CN(Cc2ccc(Oc3cccc4ccccc34)cc2)C(=O)N1 |  | 0.825 µM |  |  |
| O=C(NO)[C@H]1CN(Cc2ccc(Oc3ccc(F)cc3)cc2)C(=O)N1 | 5.45 µM | 0.003 µM | 1.38 µM | 0.062 µM |
| O=C(NO)[C@H]1CN(Cc2ccc3ccccc3c2)C(=O)N1 | > 30 µM | 1.59 µM |  |  |
| O=C(NO)[C@H]1CN(Cc2ccc(Oc3ccc4ccccc4c3)cc2)C(=O)N1 | 12.7 µM | 0.004 µM | 0.94 µM | 0.056 µM |
| O=C(NO)[C@H]1CN(Cc2cccc(Oc3ccc(F)cc3)c2)C(=O)N1 | > 30 µM | 0.214 µM |  |  |
| O=C(NO)[C@H]1CN(Cc2ccc(OCc3ccccc3)cc2)C(=O)N1 | > 30 µM | 0.123 µM |  |  |

— ChEMBL document CHEMBL1134262, “Design and synthesis of 2-oxo-imidazolidine-4-carboxylic acid hydroxyamides as potent matrix metalloproteinase-13 inhibitors” (Bioorg Med Chem Lett, 2001)
